# Data reported in patent US12251469B2, “Sterically stabilized carrier compositions for treating a mammal” (VGSK Technologies, Inc., priority 2015, dated 2025).
# System: sensitized mice
# Assay: Preliminary dose-response study of BUD in sensitized mice, histopathologic examination
# Format: in vivo
# Experimental: The dose of BUD chosen was based on preliminary dose-response studies with 5 to 50 μg of BUD as follows.
# Each day, 5, 10, 15, 20 or 50 μg of BUD was administered to groups of sensitized mice, and the dose-dependent effects on the inflammatory parameters were evaluated.
# The tissues were removed and fixed with 10% phosphate buffered formalin. Tissue samples were taken from the skin, spleen, liver, gastrointestinal tract, and kidney. The tissues were embedded in paraffin, sectioned at 5 μm thickness and stained with hematoxylin and eosin and analyzed using light microscopy.
# Coded slides were examined by a pathologist in a blinded fashion for evidence of inflammatory changes, including epithelial hyperplasia and perivascular edema and accumulation of eosinophils, neutrophils, and mononuclear inflammatory cells. Each of the parameters evaluated was given an individual number score. Objective measurements of histopathological changes include aggregation of eosinophils around blood vessels (perivascular), accumulation of other inflammatory cells, presence of desquamation and hyperplasia of the epithelium, and infiltration of inflammatory cells.
smiles,measurement,value
"CCCC1O[C@@H]2C[C@H]3[C@@H]4CCC5=CC(=O)C=C[C@]5(C)[C@H]4[C@@H](O)C[C@]3(C)[C@]2(C(=O)CO)O1 (stereo partly shown) [Daily BUD, budesonide]",granulomas or abnormalities in any of the tissues evaluated,no granulomas or abnormalities
